Blank lines part the entries; values can stand above or below the compound they belong to. Square brackets hold non-standard residues; d marks the D form. Peptide text beside a SMILES is read from it. * marks the point of attachment. Nle = CCCC[C@H](N)C(=O)O; Cbz = O=C(OCc1ccccc1)*
Legend:
MMP = conditions: acute pig model, orally-active; cited from earlier work
[1] = test system: RV contractile dysfunction from acute RV pressure overload
[2] = test system: m-calpain from porcine kidney; conditions: cited from earlier work
Molt-4 cells = conditions: cited from earlier work
cultured rat lenses = conditions: calcium ionophore A23187; cited from earlier work
isolated rat hearts [3] = conditions: global ischemia; cited from earlier work
isolated rat hearts [4] = conditions: elevated LV end-diastolic pressure without ischemia; cited from earlier work

SMILES: NC(=O)C1=C(O)C[C@@H]2C[C@@H]3Cc4cccc(O)c4C(=O)C3=C(O)[C@]2(O)C1=O [COL-3]
- MMP-mediated lung injury (MMP): prevent

- independent hemodynamic effects ([1]; pig, in vivo): no independent hemodynamic effects
SMILES: CC(C)[C@H](NC(=O)OCc1ccccc1)C(=O)N[C@H](C=O)Cc1ccccc1 [MDL-28170, carbobezoxy-valinyl-phenylalaninal] (Cbz-Val-Phe-aldehyde)
- attenuation of RV dysfunction resulting from acute RV pressure overload (RVPO) ([1]; 90 min RVPO, 30 min recovery, versus vehicle): more than 50%
- preload-adjusted external work of the RV free wall ([1]; thirty min after release of pulmonary artery constriction, n=7, p<0.05 vs vehicle): 69 % of baseline

SMILES: CC(C)C[C@@H](C=O)NC(=O)[C@@H](NS(=O)(=O)c1ccc(F)cc1)C(C)C [SJA6017, N-(4-fluorophenylsulfonyl)-L-valyl-L-leucinal]
- binding to the active site of m-calpain ([2]; casein zymography): reversibly bound
- inhibition of purified m-calpain ([2]; in vitro): strong inhibition
- cell permeability (Molt-4 cells): cell-permeable
- nuclear opacity and proteolysis of crystallins and alpha-spectrin (cultured rat lenses): reduced

SMILES: CCCC[C@@H](C=O)NC(=O)[C@H](CC(C)C)NC(=O)[C@H](CC(C)C)NC(C)=O [calpain inhibitor-1] (Ac-Leu-Leu-[Nle]-aldehyde)
- cytoskeletal degradation and myocardial stunning (isolated rat hearts [3]): attenuates

SMILES: CCCC[C@@H](C=O)NC(=O)[C@H](CC(C)C)NC(=O)OCc1ccccc1 [calpeptin]
- TnI degradation and stunning (isolated rat hearts [4]): prevented

Source: patent US7862811B2, “Protease inhibition for prevention or treatment of heart failure” (Regents of the University of Colorado, priority 2004, dated 2011)
